Measurements from patent US8829030B2 (priority 2002, dated 2014).
Structures can show the parent of a compound that is named as a salt.

Molecular target: recombinant HCV RNA-dependent RNA polymerase (NS5B protein) (Hepatitis C virus genotype 1b, UniProt P26663)
Test: biochemical
Design: species or system HCV-Bk strain
Settings: not given

Sequence of recombinant HCV RNA-dependent RNA polymerase (NS5B protein) (P26663 2420-3010 limits assumed): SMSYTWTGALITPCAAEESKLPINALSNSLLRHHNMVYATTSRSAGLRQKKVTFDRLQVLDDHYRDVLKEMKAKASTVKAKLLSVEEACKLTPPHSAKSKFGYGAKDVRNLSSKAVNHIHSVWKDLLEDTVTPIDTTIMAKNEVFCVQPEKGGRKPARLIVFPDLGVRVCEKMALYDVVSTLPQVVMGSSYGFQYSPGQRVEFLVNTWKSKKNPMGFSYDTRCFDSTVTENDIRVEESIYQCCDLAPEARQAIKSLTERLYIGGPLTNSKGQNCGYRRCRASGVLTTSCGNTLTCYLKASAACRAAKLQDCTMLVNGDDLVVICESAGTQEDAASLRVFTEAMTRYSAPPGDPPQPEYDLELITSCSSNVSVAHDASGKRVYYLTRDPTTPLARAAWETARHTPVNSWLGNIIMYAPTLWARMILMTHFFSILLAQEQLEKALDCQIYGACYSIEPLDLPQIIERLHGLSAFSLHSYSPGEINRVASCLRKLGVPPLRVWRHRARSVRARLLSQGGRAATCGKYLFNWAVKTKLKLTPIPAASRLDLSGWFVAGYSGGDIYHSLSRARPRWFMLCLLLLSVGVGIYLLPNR

Question: `CC(C)N(C(=O)[C@H]1CC[C@H](C)CO1)c1cc(-c2ccccc2)sc1C(=O)O` (relative stereo) [Compound 27, 3-[Isopropyl-(trans-5-methyl-tetrahydro-pyran-2-carbonyl)-amino]-5-phenyl-thiophene-2-carboxylic acid] was tested. Which IC50 did it give?
Answer: The IC50 was under 5 µM.

Question: How did the IC50 turn out when `C[C@H]1CC[C@H](C(=O)N(c2cc(-c3ccccc3)sc2C(=O)O)C2CC[S+]([O-])CC2)CC1` (relative stereo) [Compound 68, 3-[(trans-4-Methyl-cyclohexanecarbonyl)-(1-oxo-tetrahydro-thiopyran-4-yl)-amino]-5-phenyl-thiophene-2-carboxylic acid] was run?
Answer: Its IC50 is under 5 µM.

Question: With `CC1(O)CCC(N(c2cc(-c3ccccc3)sc2C(=O)O)C(=O)[C@H]2CC[C@@H](C)CC2)CC1` (relative stereo) [Compound 86, cis-3-[(4-Hydroxy-4-methyl-cyclohexyl)-(4-methyl-cyclohexanecarbonyl)-amino]-5-phenyl-thiophene-2-carboxylic acid] as the molecule, how does the IC50 read?
Answer: Its IC50 is under 5 µM.

Question: With `C[C@H]1CC[C@H](C(=O)N(c2cc(-c3ccccc3)sc2C(=O)O)[C@H]2CCC[C@@H](O)C2)CC1` (stereo in doubt) [Compound 87, 3-[(3-hydroxy-cyclohexyl)-(4-methyl-cyclohexanecarbonyl)-amino]-5-phenyl-thiophene-2-carboxylic acid] as the molecule, how does the IC50 read?
Answer: The IC50 was under 5 µM.

Question: Which IC50 does the source give for `C[C@H]1CC[C@H](C(=O)N(c2cc(-c3ccccc3)sc2C(=O)O)[C@H]2CCC[C@H](O)C2)CC1` (stereo in doubt) [Compound 89, 3-[(3-hydroxy-cyclohexyl)-(4-methyl-cyclohexanecarbonyl)-amino]-5-phenyl-thiophene-2-carboxylic acid] here?
Answer: Its IC50 is under 5 µM.

Question: For `CC1CCC(C(=O)N(CC2CCCNC2)c2cc(-c3ccccc3)sc2C(=O)O)CC1` (centres unmarked) [Compound 1, 3-{[(2-carboxy-5-phenyl-thiophen-3-yl)-(4-methyl-cyclohexanecarbonyl)-amino]-methyl}-piperidinium; trifluoro-acetate], which IC50 is on record?
Answer: Its IC50 is under 5 µM.

Question: For `CC1CCC(C(=O)N(CC2CCCCN2)c2cc(-c3ccccc3)sc2C(=O)O)CC1` (centres unmarked) [Compound 2, 2-{[(2-carboxy-5-phenyl-thiophen-3-yl)-(4-methyl-cyclohexanecarbonyl)-amino]-methyl}-piperidinium; trifluoro-acetate], which IC50 is on record?
Answer: Its IC50 is under 5 µM.

Question: How did the IC50 turn out when `CC1CCC(C(=O)N(Cc2cccnc2)c2cc(-c3ccccc3)sc2C(=O)O)CC1` (centres unmarked) [Compound 3, 3-[(4-methyl-cyclohexanecarbonyl)-pyridin-3-ylmethyl-amino]-5-phenyl-thiophene-2-carboxylic acid] was run?
Answer: The IC50 was under 5 µM.

Question: For `CC1CCC(C(=O)N(Cc2ccncc2)c2cc(-c3ccccc3)sc2C(=O)O)CC1` (centres unmarked) [Compound 4, 3-[(4-methyl-cyclohexanecarbonyl)-pyridin-4-ylmethyl-amino]-5-phenyl-thiophene-2-carboxylic acid], which IC50 is on record?
Answer: The IC50 was under 5 µM.

Question: How did the IC50 turn out when `CC1CCC(C(=O)N(c2cc(-c3ccccc3)sc2C(=O)O)C2CCCNCC2)CC1` (centres unmarked) [Compound 6, 3-[azepan-4-yl-(4-methyl-cyclohexanecarbonyl)-amino]-5-phenyl-thiophene-2-carboxylic acid] was run?
Answer: Its IC50 is under 5 µM.

Question: How did the IC50 turn out when `O=C(O)c1sc(-c2ccccc2)cc1N(CC1OCCO1)C(=O)c1ccc(Cl)cc1Cl` [Compound 7, 3-[(2,4-dichloro-benzoyl)-[1,3]dioxolan-2-ylmethyl-amino]-5-phenyl-thiophene-2-carboxylic acid] was run?
Answer: Its IC50 is under 5 µM.

Question: `CC1CCC(C(=O)N(CC2OCCO2)c2cc(-c3ccccc3)sc2C(=O)O)CC1` (centres unmarked) [Compound 8, 3-[[1,3]dioxolan-2-ylmethyl-(4-methyl-cyclohexanecarbonyl)-amino]-5-phenyl-thiophene-2-carboxylic acid] was tested. Which IC50 did it give?
Answer: The IC50 was under 5 µM.

Question: With `CC1CCC(F)(C(=O)N(c2cc(-c3ccccc3)sc2C(=O)O)C(C)C)CC1` (stereo not drawn) [Compound 9, Trans-3-[(1-Fluoro-4-methyl-cyclohexanecarbonyl)-isopropyl-amino]-5-phenyl-thiophene-2-carboxylic acid] as the molecule, how does the IC50 read?
Answer: The IC50 was under 5 µM.

Question: Which IC50 does the source give for `CC(=O)NC1CC(C)CCC1C(=O)N(c1cc(-c2ccccc2)sc1C(=O)O)C(C)C` (centres unmarked) [Compound 12, 3-[(2-acetylamino-4-methyl-cyclohexanecarbonyl)-isopropyl-amino]-5-phenyl-thiophene-2-carboxylic acid] here?
Answer: Its IC50 is 5 to 20 µM.

Question: How did the IC50 turn out when `CC1CCC(C(=O)N(c2cc(-c3ccccc3)sc2C(=O)O)C2CCC(=O)CC2)CC1` (centres unmarked) [Compound 13, 3-[(4-methyl-cyclohexanecarbonyl)-(4-oxo-cyclohexyl)-amino]-5-phenyl-thiophene-2-carboxylic acid] was run?
Answer: Its IC50 is under 5 µM.

Question: With `CC1CCC(C(=O)N(Cc2ccccn2)c2cc(-c3ccccc3)sc2C(=O)O)CC1` (centres unmarked) [Compound 14, 3-[(4-methyl-cyclohexanecarbonyl)-pyridin-2-ylmethyl-amino]-5-phenyl-thiophene-2-carboxylic acid] as the molecule, how does the IC50 read?
Answer: Its IC50 is under 5 µM.

Question: `C[C@H]1CC[C@H](C(=O)N(c2cc(-c3ccccc3)sc2C(=O)O)[C@H]2CC[C@H](O)CC2)CC1` [Compound 15, 3-[(trans-4-Hydroxy-cyclohexyl)-(trans-4-methyl-cyclohexanecarbonyl)-amino]-5-phenyl-thiophene-2-carboxylic acid] was tested. Which IC50 did it give?
Answer: The IC50 was under 5 µM.

Question: How did the IC50 turn out when `CC1CCC(C(=O)N(c2cc(-c3ccccc3)sc2C(=O)O)C2CCC(=NO)CC2)CC1` (centres unmarked) [Compound 16, 3-[(4-hydroxyimino-cyclohexyl)-(4-methyl-cyclohexanecarbonyl)-amino]-5-phenyl-thiophene-2-carboxylic acid] was run?
Answer: The IC50 was under 5 µM.

Question: With `CC1=CCC(C(=O)N(c2cc(-c3ccccc3)sc2C(=O)O)C(C)C)CC1` (centres unmarked) [Compound 17, 3-[isopropyl-(4-methyl-cyclohex-3-enecarbonyl)-amino]-5-phenyl-thiophene-2-carboxylic acid] as the molecule, how does the IC50 read?
Answer: Its IC50 is under 5 µM.

Question: With `CCC(C)C(CN=[N+]=[N-])N(C(=O)c1ccc(Cl)cc1Cl)c1cc(-c2ccccc2)sc1C(=O)O` (centres unmarked) [Compound 18, 3-[(1-azidomethyl-2-methyl-butyl)-(2,4-dichloro-benzoyl)-amino]-5-phenyl-thiophene-2-carboxylic acid] as the molecule, how does the IC50 read?
Answer: The IC50 was under 5 µM.

Question: For `CCC(C)C(C[NH3+])N(C(=O)c1ccccc1Cl)c1cc(-c2ccccc2)sc1C(=O)O` (centres unmarked) [Compound 19, 2-[(2-carboxy-5-phenyl-thiophen-3-yl)-(2-chloro-benzoyl)-amino]-3-methyl-pentyl-ammonium trifluoroacetate], which IC50 is on record?
Answer: The IC50 was over 20 µM.

Question: With `CCC(C)C(CN)N(C(=O)c1ccc(Cl)cc1Cl)c1cc(-c2ccccc2)sc1C(=O)O` (centres unmarked) [Compound 20, 3-[(1-aminomethyl-2-methyl-butyl)-(2,4-dichloro-benzoyl)-amino]-5-phenyl-thiophene-2-carboxylic acid] as the molecule, how does the IC50 read?
Answer: The IC50 was 5 to 20 µM.

Question: For `CC1COC(C(=O)N(c2cc(-c3ccccc3)sc2C(=O)O)C(C)C)OC1` (centres unmarked) [Compound 22, 3-[isopropyl-(5-methyl-[1,3]dioxane-2-carbonyl)-amino]-5-phenyl-thiophene-2-carboxylic acid], which IC50 is on record?
Answer: The IC50 was 5 to 20 µM.

Question: Which IC50 does the source give for `CC(C)N(C(=O)[C@@H]1CC[C@@H](C)C[C@@H]1O)c1cc(-c2ccc(F)cc2)sc1C(=O)O` [Compound 24] here?
Answer: Its IC50 is under 5 µM.

Question: `CON=C1CCC(N(C(=O)C2CCC(C)CC2)c2cc(-c3ccccc3)sc2C(=O)O)CC1` (centres unmarked) [Compound 25, 3-[(4-methoxyimino-cyclohexyl)-(4-methyl-cyclohexanecarbonyl)-amino]-5-phenyl-thiophene-2-carboxylic acid] was tested. Which IC50 did it give?
Answer: The IC50 was under 5 µM.

Question: How did the IC50 turn out when `CC(C)N(C(=O)C1=CC[C@H](C)CC1)c1cc(-c2ccc(F)cc2)sc1C(=O)O` [Compound 26, (4R)-5-(4-Fluoro-phenyl)-3-[isopropyl-(4-methyl-cyclohex-1-enecarbonyl)-amino]-thiophene-2-carboxylic acid] was run?
Answer: Its IC50 is under 5 µM.

Question: With `C=C1CCC(C(=O)N(c2cc(-c3ccccc3)sc2C(=O)O)C(C)C)CC1` [Compound 28, 3-[isopropyl-(4-methylene-cyclohexanecarbonyl)-amino]-5-phenyl-thiophene-2-carboxylic acid] as the molecule, how does the IC50 read?
Answer: Its IC50 is under 5 µM.

Question: Which IC50 does the source give for `CC1CCC(C(=O)N(c2cc(-c3ccccc3)sc2C(=O)O)C(C)C)OC1` (stereo not drawn) [Compound 29, 3-[Isopropyl-(cis-5-methyl-tetrahydro-pyran-2-carbonyl)-amino]-5-phenyl-thiophene-2-carboxylic acid] here?
Answer: The IC50 was 5 to 20 µM.

Question: For `CC1=CCC(C(=O)N(c2cc(-c3ccccc3)sc2C(=O)O)C(C)C)OC1` (centres unmarked) [Compound 30, 3-[isopropyl-(5-methyl-3,6-dihydro-2H-pyran-2-carbonyl)-amino]-5-phenyl-thiophene-2-carboxylic acid], which IC50 is on record?
Answer: Its IC50 is under 5 µM.

Question: `CC1CCC(C(=O)N(c2cc(-c3ccccc3)sc2C(=O)O)C2CCOCC2)C(O)C1` (centres unmarked) [Compound 31, 3-[(2-hydroxy-4-methyl-cyclohexanecarbonyl)-(tetrahydro-pyran-4-yl)-amino]-5-phenyl-thiophene-2-carboxylic acid] was tested. Which IC50 did it give?
Answer: Its IC50 is under 5 µM.

Question: How did the IC50 turn out when `CC1CCC(C(=O)N(c2cc(-c3ccccc3)sc2C(=O)O)C(C)CN=[N+]=[N-])CC1` (centres unmarked) [Compound 32, 3-[(2-azido-1-methyl-ethyl)-(4-methyl-cyclohexanecarbonyl)-amino]-5-phenyl-thiophene-2-carboxylic acid] was run?
Answer: The IC50 was under 5 µM.

Question: `C[C@H]1CC[C@H](C(=O)N(c2cc(-c3ccccc3)sc2C(=O)O)C2CCSCC2)CC1` [Compound 34, 3-[(trans-4-Methyl-cyclohexanecarbonyl)-(tetrahydro-thiopyran-4-yl)-amino]-5-phenyl-thiophene-2-carboxylic acid] was tested. Which IC50 did it give?
Answer: The IC50 was under 5 µM.

Question: Which IC50 does the source give for `CC1CCC(C(=O)N(CC2CCCN(C)C2)c2cc(-c3ccccc3)sc2C(=O)O)CC1` (centres unmarked) [Compound 35, 3-{[(2-carboxy-5-phenyl-thiophen-3-yl)-(4-methyl-cyclohexanecarbonyl)-amino]-methyl}-1-methyl-piperidinium chloride] here?
Answer: The IC50 was under 5 µM.

Question: With `CC1CCC(C(=O)N(c2cc(-c3ccccc3)sc2C(=O)O)C(C)CN)CC1` (centres unmarked) [Compound 36, 3-[(2-amino-1-methyl-ethyl)-(4-methyl-cyclohexanecarbonyl)-amino]-5-phenyl-thiophene-2-carboxylic acid] as the molecule, how does the IC50 read?
Answer: Its IC50 is under 5 µM.

Same assay, conditions: read-out: Activity (polymerase activity, IC50)

Question: For `CC1CCC(C(=O)N(c2cc(-c3cccc(F)c3)sc2C(=O)O)C(C)C)CC1` (centres unmarked) [Compound 5, 5-(3-fluoro-phenyl)-3-[isopropyl-(4-methyl-cyclohexanecarbonyl)-amino]-thiophene-2-carboxylic acid], which IC50 is on record?
Answer: The IC50 was under 5 µM.
